Holding throughout (assay type): biochemical
One assay deals with EGFR^WT (Homo sapiens, UniProt P00533). Description: in vitro EGFR kinase inhibition assay.
Another assay addresses VEGFR-2 (Homo sapiens, UniProt P35968). Briefly: in vitro kinase inhibition.
The target of the next assay is EGFR^T790M (Homo sapiens, UniProt P00533, T790M). Briefly: in vitro EGFR kinase inhibition assay.

This note sets out measurements from PMC11007702 (ACS Omega, 2024).

EGFR^WT, sequence (P00533 25-1210): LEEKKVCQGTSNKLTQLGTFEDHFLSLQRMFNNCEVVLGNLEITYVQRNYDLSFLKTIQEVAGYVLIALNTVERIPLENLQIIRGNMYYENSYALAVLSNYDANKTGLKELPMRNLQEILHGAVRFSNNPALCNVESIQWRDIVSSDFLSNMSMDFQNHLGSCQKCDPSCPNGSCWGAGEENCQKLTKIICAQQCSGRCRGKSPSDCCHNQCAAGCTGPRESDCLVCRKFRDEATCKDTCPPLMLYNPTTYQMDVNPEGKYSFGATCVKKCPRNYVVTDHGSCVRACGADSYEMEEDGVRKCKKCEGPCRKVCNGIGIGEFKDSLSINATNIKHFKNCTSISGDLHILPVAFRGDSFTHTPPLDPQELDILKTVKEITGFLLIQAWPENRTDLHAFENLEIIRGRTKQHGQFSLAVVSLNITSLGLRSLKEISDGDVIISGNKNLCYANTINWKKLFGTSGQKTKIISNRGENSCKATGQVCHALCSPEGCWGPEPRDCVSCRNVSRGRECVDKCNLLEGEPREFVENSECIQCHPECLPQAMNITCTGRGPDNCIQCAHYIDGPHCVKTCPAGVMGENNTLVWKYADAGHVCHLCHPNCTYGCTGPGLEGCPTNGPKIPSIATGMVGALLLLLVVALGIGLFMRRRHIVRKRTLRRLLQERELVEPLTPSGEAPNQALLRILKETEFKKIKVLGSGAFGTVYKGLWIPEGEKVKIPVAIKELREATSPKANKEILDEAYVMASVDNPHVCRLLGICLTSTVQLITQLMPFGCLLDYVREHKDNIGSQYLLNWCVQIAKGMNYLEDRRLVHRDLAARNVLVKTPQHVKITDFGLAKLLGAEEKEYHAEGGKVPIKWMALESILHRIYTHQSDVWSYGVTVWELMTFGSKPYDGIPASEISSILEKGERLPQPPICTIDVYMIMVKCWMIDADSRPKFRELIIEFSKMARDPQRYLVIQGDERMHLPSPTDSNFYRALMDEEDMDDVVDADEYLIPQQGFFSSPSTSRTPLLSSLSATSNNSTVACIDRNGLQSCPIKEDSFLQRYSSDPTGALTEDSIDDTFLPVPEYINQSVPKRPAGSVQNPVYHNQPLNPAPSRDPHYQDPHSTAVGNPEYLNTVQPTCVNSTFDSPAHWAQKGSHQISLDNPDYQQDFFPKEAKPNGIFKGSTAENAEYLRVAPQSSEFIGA
EGFR^T790M, sequence (P00533 669-1210 T790M limits assumed): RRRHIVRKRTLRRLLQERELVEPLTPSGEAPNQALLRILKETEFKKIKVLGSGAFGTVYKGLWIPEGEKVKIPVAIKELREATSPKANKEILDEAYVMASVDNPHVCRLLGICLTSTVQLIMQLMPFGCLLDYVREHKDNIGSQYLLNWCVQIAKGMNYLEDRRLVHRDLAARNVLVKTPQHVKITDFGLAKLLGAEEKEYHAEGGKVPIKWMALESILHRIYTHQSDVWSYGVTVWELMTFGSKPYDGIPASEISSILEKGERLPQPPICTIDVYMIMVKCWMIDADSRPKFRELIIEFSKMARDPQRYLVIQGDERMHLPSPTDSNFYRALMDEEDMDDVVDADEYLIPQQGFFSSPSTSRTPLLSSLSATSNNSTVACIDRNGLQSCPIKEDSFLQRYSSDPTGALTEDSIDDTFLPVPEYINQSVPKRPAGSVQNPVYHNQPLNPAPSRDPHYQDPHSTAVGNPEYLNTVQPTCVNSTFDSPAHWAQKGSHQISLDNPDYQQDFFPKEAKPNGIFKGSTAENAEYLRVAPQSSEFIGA
VEGFR-2, sequence (P35968 20-1356): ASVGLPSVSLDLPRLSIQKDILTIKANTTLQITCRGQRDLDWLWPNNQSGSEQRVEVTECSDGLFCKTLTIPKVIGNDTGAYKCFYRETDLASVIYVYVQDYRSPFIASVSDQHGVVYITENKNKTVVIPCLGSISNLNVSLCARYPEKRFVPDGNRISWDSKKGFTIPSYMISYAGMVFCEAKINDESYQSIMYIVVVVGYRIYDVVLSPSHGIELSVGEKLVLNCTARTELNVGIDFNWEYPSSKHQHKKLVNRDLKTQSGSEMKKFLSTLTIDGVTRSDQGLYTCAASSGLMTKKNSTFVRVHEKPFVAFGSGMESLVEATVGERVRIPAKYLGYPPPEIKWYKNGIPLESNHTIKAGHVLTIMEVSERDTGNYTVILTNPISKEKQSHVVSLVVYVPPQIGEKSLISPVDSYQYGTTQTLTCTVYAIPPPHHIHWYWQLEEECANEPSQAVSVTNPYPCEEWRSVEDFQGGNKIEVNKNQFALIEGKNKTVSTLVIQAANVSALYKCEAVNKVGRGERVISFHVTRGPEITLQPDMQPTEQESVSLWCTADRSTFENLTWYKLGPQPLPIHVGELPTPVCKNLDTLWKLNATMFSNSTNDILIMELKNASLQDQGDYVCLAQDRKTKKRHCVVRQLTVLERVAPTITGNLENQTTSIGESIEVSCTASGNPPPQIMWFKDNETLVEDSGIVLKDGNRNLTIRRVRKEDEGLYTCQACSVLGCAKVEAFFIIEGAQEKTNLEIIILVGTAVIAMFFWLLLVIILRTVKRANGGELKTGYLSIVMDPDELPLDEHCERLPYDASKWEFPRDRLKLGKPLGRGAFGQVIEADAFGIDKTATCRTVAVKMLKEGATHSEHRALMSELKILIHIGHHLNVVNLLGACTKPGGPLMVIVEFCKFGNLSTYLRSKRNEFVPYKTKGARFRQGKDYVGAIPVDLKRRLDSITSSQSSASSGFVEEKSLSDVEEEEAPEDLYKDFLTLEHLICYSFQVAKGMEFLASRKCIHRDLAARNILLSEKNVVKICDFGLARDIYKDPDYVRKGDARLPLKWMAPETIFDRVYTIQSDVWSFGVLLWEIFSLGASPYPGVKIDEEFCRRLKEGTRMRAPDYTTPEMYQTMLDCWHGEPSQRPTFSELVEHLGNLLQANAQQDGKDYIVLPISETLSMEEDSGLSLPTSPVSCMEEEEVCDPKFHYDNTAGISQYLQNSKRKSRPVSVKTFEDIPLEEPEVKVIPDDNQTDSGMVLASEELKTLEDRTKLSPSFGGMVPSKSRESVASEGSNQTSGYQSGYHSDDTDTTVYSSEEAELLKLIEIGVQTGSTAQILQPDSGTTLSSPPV

In the case of `Cc1ccc(NC(=O)Cn2c(=O)c3c(ncn3C)n(C)c2=O)cc1` [T-1-PMPA, 2-(3,7-Dimethyl-2,6-dioxo-2,3,6,7-tetrahydro-1H-purin-1-yl)-N-(p-tolyl)acetamide], the IC50 against EGFR^WT stood at 86 nM; against VEGFR-2, 2070 nM; on EGFR^T790M, 562 nM.

The term IC50 denotes the midpoint of a concentration-inhibition curve. Low values mean higher potency, high ones lower potency.
